Reference: ChEMBL document CHEMBL1201862, “PubChem BioAssay data set” (2004)
Calls of active or inactive are those of the source.

What was measured:
[1] = biological target: T1, 1-phosphatidylinositol 4,5-bisphosphate phosphodiesterase gamma-1 (Homo sapiens, UniProt P19174); assay: Counterscreen for inhibitors of phospholipase C isozymes (PLC-B3): Fluorescence-based biochemical high throughput dose response assay to identify inhibitors of phospholipase C isozymes (PLC-gamma1).
T1 sequence (P19174 whole entry): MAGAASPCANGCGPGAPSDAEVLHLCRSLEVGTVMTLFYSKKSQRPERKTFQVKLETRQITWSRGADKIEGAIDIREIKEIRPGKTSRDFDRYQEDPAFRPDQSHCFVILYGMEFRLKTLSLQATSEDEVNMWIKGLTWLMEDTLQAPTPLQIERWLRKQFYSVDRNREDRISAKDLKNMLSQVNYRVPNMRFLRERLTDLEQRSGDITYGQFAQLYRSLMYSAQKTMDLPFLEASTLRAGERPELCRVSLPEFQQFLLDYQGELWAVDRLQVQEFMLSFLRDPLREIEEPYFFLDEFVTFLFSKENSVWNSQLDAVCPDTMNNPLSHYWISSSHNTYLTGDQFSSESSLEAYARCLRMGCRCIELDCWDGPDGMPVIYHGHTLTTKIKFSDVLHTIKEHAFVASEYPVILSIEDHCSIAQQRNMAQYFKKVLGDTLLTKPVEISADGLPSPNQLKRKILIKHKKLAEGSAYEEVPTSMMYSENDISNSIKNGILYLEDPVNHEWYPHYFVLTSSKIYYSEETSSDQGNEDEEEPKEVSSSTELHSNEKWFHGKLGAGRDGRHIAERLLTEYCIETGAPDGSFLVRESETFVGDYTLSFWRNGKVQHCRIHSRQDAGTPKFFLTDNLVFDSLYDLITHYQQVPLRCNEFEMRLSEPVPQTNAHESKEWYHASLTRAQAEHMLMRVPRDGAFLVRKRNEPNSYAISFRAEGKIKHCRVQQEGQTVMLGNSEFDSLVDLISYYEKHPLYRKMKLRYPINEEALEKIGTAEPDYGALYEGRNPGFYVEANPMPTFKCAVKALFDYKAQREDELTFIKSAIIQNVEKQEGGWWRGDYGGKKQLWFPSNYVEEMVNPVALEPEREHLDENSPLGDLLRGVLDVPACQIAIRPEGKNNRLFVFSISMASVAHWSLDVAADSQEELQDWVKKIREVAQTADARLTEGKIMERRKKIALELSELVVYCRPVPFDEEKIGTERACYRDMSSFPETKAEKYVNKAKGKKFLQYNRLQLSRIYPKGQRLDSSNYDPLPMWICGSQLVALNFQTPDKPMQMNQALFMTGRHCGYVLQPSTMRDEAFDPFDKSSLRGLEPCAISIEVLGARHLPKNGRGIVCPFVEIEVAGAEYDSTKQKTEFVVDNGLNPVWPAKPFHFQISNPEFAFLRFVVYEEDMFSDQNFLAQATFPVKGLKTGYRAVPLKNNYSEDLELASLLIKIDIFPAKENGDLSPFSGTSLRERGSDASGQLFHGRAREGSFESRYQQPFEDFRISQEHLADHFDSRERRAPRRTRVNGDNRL

Albumin = Albumin (Bos taurus, UniProt P02769); assay: Counterscreen for inhibitors of T-cell receptor (TCR)-CD3 interaction: Fluorescence-based biochemical high throughput dose response assay to identify inhibitors of T-cell receptor (TCR)-CD3 interaction using a TAMRA-labeled BSA probe.; assay type: functional
Albumin, sequence (P02769 whole entry): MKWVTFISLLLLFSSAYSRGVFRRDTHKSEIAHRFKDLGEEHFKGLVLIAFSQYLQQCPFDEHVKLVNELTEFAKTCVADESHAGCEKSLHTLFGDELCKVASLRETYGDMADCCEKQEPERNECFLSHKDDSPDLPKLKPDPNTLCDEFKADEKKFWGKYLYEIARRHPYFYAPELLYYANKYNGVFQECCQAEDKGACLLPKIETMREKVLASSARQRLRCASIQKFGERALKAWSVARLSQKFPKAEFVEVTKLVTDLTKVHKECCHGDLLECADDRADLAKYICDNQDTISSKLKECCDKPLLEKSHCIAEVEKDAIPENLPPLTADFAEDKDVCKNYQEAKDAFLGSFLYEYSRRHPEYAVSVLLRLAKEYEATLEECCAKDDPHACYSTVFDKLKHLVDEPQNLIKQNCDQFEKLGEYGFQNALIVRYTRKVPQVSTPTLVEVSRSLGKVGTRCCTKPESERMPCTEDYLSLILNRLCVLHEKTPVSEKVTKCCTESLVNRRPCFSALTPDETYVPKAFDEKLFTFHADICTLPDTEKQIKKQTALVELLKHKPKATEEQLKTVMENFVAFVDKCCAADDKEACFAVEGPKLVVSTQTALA

[2] = biological target: T2, 1-phosphatidylinositol 4,5-bisphosphate phosphodiesterase beta-3 (Homo sapiens, UniProt Q01970); assay: Fluorescence-based biochemical high throughput dose response assay to identify inhibitors of phospholipase C isozymes (PLC-B3).
T2 sequence (Q01970 whole entry): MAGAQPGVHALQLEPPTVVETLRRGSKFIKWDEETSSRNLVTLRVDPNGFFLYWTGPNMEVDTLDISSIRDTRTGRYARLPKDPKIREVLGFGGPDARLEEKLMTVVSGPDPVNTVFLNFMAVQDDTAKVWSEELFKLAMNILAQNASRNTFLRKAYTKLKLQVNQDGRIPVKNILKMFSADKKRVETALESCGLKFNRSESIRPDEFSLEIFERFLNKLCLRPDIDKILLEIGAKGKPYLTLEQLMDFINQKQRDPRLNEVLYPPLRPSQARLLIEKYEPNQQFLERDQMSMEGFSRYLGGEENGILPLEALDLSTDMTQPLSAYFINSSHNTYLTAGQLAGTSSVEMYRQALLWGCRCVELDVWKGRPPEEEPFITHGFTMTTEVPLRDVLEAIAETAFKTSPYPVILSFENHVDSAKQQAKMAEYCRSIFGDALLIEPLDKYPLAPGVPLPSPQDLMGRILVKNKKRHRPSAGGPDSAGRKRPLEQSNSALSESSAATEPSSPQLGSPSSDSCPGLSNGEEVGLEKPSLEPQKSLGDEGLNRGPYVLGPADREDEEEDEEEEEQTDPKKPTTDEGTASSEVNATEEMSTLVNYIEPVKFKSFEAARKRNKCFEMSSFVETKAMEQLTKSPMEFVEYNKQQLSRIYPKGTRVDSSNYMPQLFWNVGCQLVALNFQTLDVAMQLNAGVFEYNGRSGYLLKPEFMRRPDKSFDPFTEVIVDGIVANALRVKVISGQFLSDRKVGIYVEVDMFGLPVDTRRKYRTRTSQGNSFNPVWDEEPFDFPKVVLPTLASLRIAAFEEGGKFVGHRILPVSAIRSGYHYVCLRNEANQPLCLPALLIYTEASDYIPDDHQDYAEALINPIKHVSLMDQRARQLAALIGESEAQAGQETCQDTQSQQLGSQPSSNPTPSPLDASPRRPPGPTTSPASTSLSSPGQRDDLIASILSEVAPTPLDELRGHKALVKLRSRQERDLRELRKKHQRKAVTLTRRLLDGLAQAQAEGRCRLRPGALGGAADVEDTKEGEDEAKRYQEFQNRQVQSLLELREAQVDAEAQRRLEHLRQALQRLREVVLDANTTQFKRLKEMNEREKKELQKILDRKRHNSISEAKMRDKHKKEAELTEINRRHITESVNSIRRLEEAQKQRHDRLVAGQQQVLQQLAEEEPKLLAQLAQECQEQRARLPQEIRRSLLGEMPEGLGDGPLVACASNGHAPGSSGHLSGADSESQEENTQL

Measured: IC50

Oc1ccc(/C=N/NC(=S)Nc2cccnc2)c(O)c1O
inactive: [1] > 122 µM | Albumin > 94.1 µM | [2] > 122 µM
